The record followed here is patent US8242275B2, “Bicyclic pyrazole compounds as antibacterial agents” (Janssen Pharmaceutica NV, priority 2005, dated 2012).

Values after ≈ are worked out from the molar mass of the structure shown.

One test addresses T1, E. coli DNA gyrase (Escherichia coli, UniProt P0AES4+P0AES6).
T1 construct: purchased John Innes Enterprises Ltd. (John Innes Centre, UK)
Briefly: DNA gyrase inhibition assay (supercoiling). The test is classed as biochemical. To be noted: E. coli DNA gyrase supercoiling, visual inspection of gels; read-out: DNA Gyrase IC50 (converted). As for the experimental part: Inhibition of the supercoiling activity of E. coli DNA gyrase was determined using enzymes, buffers and substrates received from John Innes Enterprises Ltd. (John Innes Centre, UK). The reactions were performed according to the manufacturer's directions, with the following modifications.
DNA supercoiling reactions were carried out in a total reaction volume of 20 μL containing 250 ng of relaxed pBR322, 35 mM Tris-HCl (pH 7.5), 24 mM KCl, 4 mM MgCl2, 2 mM dithiothreitol, 1.8 mM spermidine, 1 mM ATP, 6.5% glycerol and 100 μg/mL albumin. Compounds diluted in 10% DMSO were added to the reaction mixture to reach a final concentration of 0.5% DMSO. Enzyme was diluted to […] in a solution of 50 mM Tris-HCl (pH 7.5), 100 mM KCl, 2 mM dithiothreitol, 1 mM EDTA, and 50% glycerol. Diluted enzyme (0.2 unit) was added to each reaction.
The reactions were incubated at 37° C. for 30 min. The reactions were then cooled to 0° C., followed by addition of 3 μL of 40% glycerol, 100 mM Tris-HCl (pH 7.5), 50 mM EDTA, 0.5% SDS and 0.1% bromophenol blue. Samples were separated on 1.0% agarose gels. Gels were stained with Ethidium bromide and photographed with a Stratagene Eagle Eye II.

The test system of a further test is S. aureus ATCC13709. The experiment in a line: In vitro antibacterial activity (MIC assay), broth microdilution. The following applies: Staphylococcus aureus, ATCC13709; read-out: S. aureus ATCC13709 MIC. It counts as cell-based. As for the experimental part:
(§1) Minimal inhibitory concentration (MIC) has been an indicator of in vitro antibacterial activity widely used in the art. The in vitro antibacterial activity of the compounds was determined by the broth microdilution method described by the National Committee for Clinical Laboratory Standards (NCCLS) in the NCCLS Document M7-A5, Vol. 20, No. 2, “Methods for Dilution Antimicrobial Susceptibility Test for Bacteria that Grow Aerobically—Fifth Edition”, which is incorporated herein by reference.
(§2) In this method, an aliquot of test compound from an 11-point series of 2-fold serial dilutions of compounds in 100% DMSO was added to wells in microdilution plates. The test organisms were prepared by adjusting the turbidity of actively growing broth cultures so that the final concentration of test organism after addition to wells with or without compounds was approximately 5×10^5 CFU/mL.
(§3) Following inoculation of the microdilution plates, the plates were incubated at 35° C. for 16-24 h and then scored for bacterial growth. […] The amount of growth in the wells containing the test compound was compared with the amount of growth in the growth-control wells (no test compound used) in each plate, and with the amount of growth in the wells containing control compounds (such as ciprofloxacin). Compounds of the present invention were tested against several bacterial strains. The MIC values (in μg/mL) are presented in Table 1 for Gram-negative (E. coli KL-16 (GSC strain 4245); data marked as (*) was obtained with E. coli ATCC25922) and Gram-positive bacteria (S. aureus ATCC13709; S. pneumoniae ATCC49619).

For test [1], the system named is E. coli KL-16 (GSC strain 4245). Described as above. It counts as cell-based. The following applies: Escherichia coli. As for the experimental part:
as §1, §2, §3

The next test has as its system S. pneumoniae ATCC49619. The description is as above. To be noted: Streptococcus pneumoniae, ATCC49619; read-out: S. pneumoniae ATCC49619 MIC. The test is classed as cell-based. As for the experimental part:
as §1, §2, §3

T1 sequence (P0AES4 whole entry, one chain of several): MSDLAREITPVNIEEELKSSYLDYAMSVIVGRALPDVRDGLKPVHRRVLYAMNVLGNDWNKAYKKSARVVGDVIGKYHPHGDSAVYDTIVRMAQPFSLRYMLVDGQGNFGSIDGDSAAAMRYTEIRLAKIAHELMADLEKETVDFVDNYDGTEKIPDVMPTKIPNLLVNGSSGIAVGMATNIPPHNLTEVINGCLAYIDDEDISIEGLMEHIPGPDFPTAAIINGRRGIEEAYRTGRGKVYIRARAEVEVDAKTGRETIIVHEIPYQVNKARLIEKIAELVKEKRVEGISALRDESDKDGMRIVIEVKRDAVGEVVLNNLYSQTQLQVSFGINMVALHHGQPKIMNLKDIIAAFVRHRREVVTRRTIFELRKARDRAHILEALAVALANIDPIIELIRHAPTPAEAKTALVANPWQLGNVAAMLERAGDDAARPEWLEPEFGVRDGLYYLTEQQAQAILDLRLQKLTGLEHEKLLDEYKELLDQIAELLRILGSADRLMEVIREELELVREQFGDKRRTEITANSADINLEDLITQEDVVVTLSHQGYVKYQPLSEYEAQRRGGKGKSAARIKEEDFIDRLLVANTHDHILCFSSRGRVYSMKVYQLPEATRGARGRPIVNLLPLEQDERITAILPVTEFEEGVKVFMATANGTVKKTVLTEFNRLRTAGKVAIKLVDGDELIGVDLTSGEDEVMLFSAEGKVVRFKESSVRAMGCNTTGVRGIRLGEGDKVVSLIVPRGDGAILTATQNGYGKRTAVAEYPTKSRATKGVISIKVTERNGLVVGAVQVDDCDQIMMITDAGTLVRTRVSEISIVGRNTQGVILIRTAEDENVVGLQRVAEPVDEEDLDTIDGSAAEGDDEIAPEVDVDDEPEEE

For `COc1ccc2nccc(-n3cc4c(n3)CCC(NC(=O)/C=C/c3ccc(F)cc3)C4)c2n1` (stereo not drawn) [Example 13, 3-(4-Fluoro-phenyl)-N-[2-(6-methoxy-[1,5]naphthyridin-4-yl)-4,5,6,7-tetrahydro-2H-indazol-5-yl]-acrylamide], the IC50 on E. coli DNA gyrase was more than 36.1 µM. In addition, the minimal inhibitory concentration (MIC) in the test on S. aureus ATCC13709 is 0.5 µg/mL (≈ 1.13 µM); in test [1] it was more than 128 µg/mL; with S. pneumoniae ATCC49619, 8 µg/mL (≈ 18 µM).

As to `COc1ccc2nccc(-n3cc4c(n3)CCC(NC(=O)/C=C/c3cccc([N+](=O)[O-])c3)C4)c2n1` (stereo not drawn) [Example 14, N-[2-(6-Methoxy-[1,5]naphthyridin-4-yl)-4,5,6,7-tetrahydro-2H-indazol-5-yl]-3-(3-nitro-phenyl)-acrylamide], the IC50 on E. coli DNA gyrase is 2.13 µM. The MIC in the test with S. aureus ATCC13709 was 1 µg/mL (≈ 2.13 µM); in test [1] it was more than 128 µg/mL; in the test with S. pneumoniae ATCC49619 it was 16 µg/mL (≈ 34 µM).

Turning to `COc1ccc2nccc(-n3cc4c(n3)CCN(C(=O)c3ccc5c(c3)NC(=O)CS5)CC4)c2n1` [Example 15, 6-[2-(6-Methoxy-[1,5]naphthyridin-4-yl)-4,5,7,8-tetrahydro-2H-1,2,6-triaza-azulene-6-carbonyl]-4H-benzo[1,4]thiazin-3-one], the IC50 at E. coli DNA gyrase was more than 65.8 µM. Moreover, the MIC in the test on S. aureus ATCC13709 was 1 µg/mL (≈ 2.06 µM); in test [1], more than 128 µg/mL; in the test on S. pneumoniae ATCC49619, 16 µg/mL (≈ 32.9 µM).

Turning to `COc1ccc2nccc(-n3ncc4c3CCC(NC(=O)c3cc5c(cc3F)SCC(=O)N5)C4)c2c1` (stereo not drawn) [Example 19, 7-Fluoro-3-oxo-3,4-dihydro-2H-benzo[1,4]thiazine-6-carboxylic acid [1-(6-methoxy-quinolin-4-yl)-4,5,6,7-tetrahydro-1H-indazol-5-yl]-amide], the IC50 on E. coli DNA gyrase was more than 63.5 µM. Moreover, the MIC with S. aureus ATCC13709 was 0.5 µg/mL (≈ 0.993 µM); in test [1] it was more than 128 µg/mL; in the test on S. pneumoniae ATCC49619, 8 µg/mL (≈ 15.9 µM).

Take `COc1ccc2nccc(-n3cc4c(n3)CCC(NC(=O)c3cc5c(cc3Cl)SCC(=O)N5)C4)c2c1` (stereo not drawn) [Example 20, 7-Chloro-3-oxo-3,4-dihydro-2H-benzo[1,4]thiazine-6-carboxylic acid [2-(6-methoxy-quinolin-4-yl)-4,5,6,7-tetrahydro-2H-indazol-5-yl]-amide]: the half-maximal inhibitory concentration (IC50) at E. coli DNA gyrase is 0.962 µM. The MIC in the test on S. aureus ATCC13709 is less than 0.125 µg/mL; in test [1] it was 2 µg/mL (≈ 3.85 µM); with S. pneumoniae ATCC49619 it was 2 µg/mL (≈ 3.85 µM).

Turning to `COc1ccc2nccc(-n3cc4c(n3)CCC(NC(=O)c3cc5ccccc5[nH]3)C4)c2c1` (stereo not drawn) [Example 21, 1H-Indole-2-carboxylic acid [2-(6-methoxy-quinolin-4-yl)-4,5,6,7-tetrahydro-2H-indazol-5-yl]-amide], the IC50 on E. coli DNA gyrase was more than 36.6 µM. Besides, the MIC was 1 µg/mL (≈ 2.29 µM) in the test on S. aureus ATCC13709, more than 128 µg/mL in test [1] and 8 µg/mL (≈ 18.3 µM) with S. pneumoniae ATCC49619.

For the compound `COc1ccc2nccc(-n3cc4c(n3)CCC(NC(=O)c3cc5c(F)cc(F)cc5[nH]3)C4)c2c1` (stereo not drawn) [Example 22, 4,6-Difluoro-1H-indole-2-carboxylic acid [2-(6-methoxy-quinolin-4-yl)-4,5,6,7-tetrahydro-2H-indazol-5-yl]-amide], on E. coli DNA gyrase, the IC50 was 1.06 µM. The MIC was 0.5 µg/mL (≈ 1.06 µM) with S. aureus ATCC13709, more than 128 µg/mL in test [1] and 8 µg/mL (≈ 16.9 µM) in the test with S. pneumoniae ATCC49619.

On to `COc1ccc2nccc(-n3cc4c(n3)CCC(NC(=O)c3cc5ccccc5o3)C4)c2c1` (stereo not drawn) [Example 25, Benzofuran-2-carboxylic acid [2-(6-methoxy-quinolin-4-yl)-4,5,6,7-tetrahydro-2H-indazol-5-yl]-amide], for which the IC50 at E. coli DNA gyrase is more than 36.5 µM. Also, the figures for the MIC (in the test on S. aureus ATCC13709; in test [1]; in the test on S. pneumoniae ATCC49619) were 1 µg/mL (≈ 2.28 µM), more than 128 µg/mL and 8 µg/mL (≈ 18.2 µM), respectively.

For `COc1ccc2nccc(-n3cc4c(n3)CCC(NC(=O)C(=O)c3cc5ccccc5[nH]3)C4)c2c1` (stereo not drawn) [Example 26, 2-(1H-Indol-2-yl)-N-[2-(6-methoxy-quinolin-4-yl)-4,5,6,7-tetrahydro-2H-indazol-5-yl]-2-oxo-acetamide], the IC50 at E. coli DNA gyrase is more than 34.4 µM. The MIC was 0.25 µg/mL (≈ 0.537 µM) in the test with S. aureus ATCC13709, more than 128 µg/mL in test [1] and 2 µg/mL (≈ 4.3 µM) with S. pneumoniae ATCC49619.

Regarding `COc1ccc2nccc(-n3cc4c(n3)CC(NC(=O)c3cc5c(cc3F)SCC(=O)N5)CC4)c2c1` (stereo not drawn) [Example 28, 7-Fluoro-3-oxo-3,4-dihydro-2H-benzo[1,4]thiazine-6-carboxylic acid [2-(6-methoxy-quinolin-4-yl)-4,5,6,7-tetrahydro-2H-indazol-6-yl]-amide], the IC50 at E. coli DNA gyrase was 3.97 µM. Moreover, the MIC turned out to be 0.25 µg/mL (≈ 0.496 µM) in the test on S. aureus ATCC13709, 16 µg/mL (≈ 31.8 µM) in test [1] and 4 µg/mL (≈ 7.94 µM) in the test on S. pneumoniae ATCC49619.

Take `O=C1CSc2cc(F)c(C(=O)NC3CCc4nn(-c5cccc6ccccc56)cc4C3)cc2N1` (stereo not drawn) [Example 33, 7-Fluoro-3-oxo-3,4-dihydro-2H-benzo[1,4]thiazine-6-carboxylic acid (2-naphthalen-1-yl-4,5,6,7-tetrahydro-2H-indazol-5-yl)-amide]: at E. coli DNA gyrase, the IC50 was 4.23 µM. Moreover, the MIC was 1 µg/mL (≈ 2.12 µM) with S. aureus ATCC13709, more than 128 µg/mL in test [1] and 8 µg/mL (≈ 16.9 µM) in the test with S. pneumoniae ATCC49619.

Take `COc1ccc2nccc(-n3cc4c(n3)CCC(NCc3ccc(N(C)C)c(C#N)c3F)C4)c2n1` (stereo not drawn) [Example 35, 6-Dimethylamino-2-fluoro-3-{[2-(6-methoxy-[1,5]naphthyridin-4-yl)-4,5,6,7-tetrahydro-2H-indazol-5-ylamino]-methyl}-benzonitrile]: the IC50 on E. coli DNA gyrase was 4.24 µM. For the same compound, the MIC in the test with S. aureus ATCC13709 was less than 0.125 µg/mL; in test [1] it was more than 128 µg/mL; in the test with S. pneumoniae ATCC49619, 1 µg/mL (≈ 2.12 µM).

On to `COc1ccc2nccc(-n3cc4c(n3)CCC(NCc3cc5c(cc3F)OCCO5)C4)c2n1` (stereo not drawn) [Example 43, (7-Fluoro-2,3-dihydro-benzo[1,4]dioxin-6-ylmethyl)-[2-(6-methoxy-[1,5]naphthyridin-4-yl)-4,5,6,7-tetrahydro-2H-indazol-5-yl]-amine], for which, on E. coli DNA gyrase, the IC50 is 1.08 µM. The MIC in the test with S. aureus ATCC13709 was more than 0.125 µg/mL; in test [1], 16 µg/mL (≈ 34.7 µM); in the test on S. pneumoniae ATCC49619, 1 µg/mL (≈ 2.17 µM).

For the compound `COc1ccc2nccc(-n3cc4c(n3)CCC(NCCCc3ccccc3)C4)c2n1` (stereo not drawn) [Example 45, [2-(6-Methoxy-[1,5]naphthyridin-4-yl)-4,5,6,7-tetrahydro-2H-indazol-5-yl]-(3-phenyl-propyl)-amine], the IC50 at E. coli DNA gyrase was 1.93 µM. Moreover, the MIC in the test on S. aureus ATCC13709 is 0.25 µg/mL (≈ 0.605 µM); in test [1] it was 128 µg/mL (≈ 310 µM); in the test on S. pneumoniae ATCC49619 it was less than 0.125 µg/mL.

Consider `COc1ccc2nccc(-n3cc4c(n3)CCC(NC/C=C/c3cccnc3)C4)c2n1` (stereo not drawn) [Example 47, [2-(6-Methoxy-[1,5]naphthyridin-4-yl)-4,5,6,7-tetrahydro-2H-indazol-5-yl]-(3-pyridin-3-yl-allyl)-amine], for which the IC50 on E. coli DNA gyrase was 4.85 µM. Also, the figures for the MIC (in the test with S. aureus ATCC13709; in test [1]; in the test on S. pneumoniae ATCC49619) were 1 µg/mL (≈ 2.42 µM), 128 µg/mL (≈ 310 µM) and 4 µg/mL (≈ 9.7 µM), respectively.

Regarding `COc1ccc2nccc(-n3cc4c(n3)CCC(NCCCc3ccc(Cl)c(Cl)c3)C4)c2n1` (stereo not drawn) [Example 48, [3-(3,4-Dichloro-phenyl)-propyl]-[2-(6-methoxy-[1,5]naphthyridin-4-yl)-4,5,6,7-tetrahydro-2H-indazol-5-yl]-amine], on E. coli DNA gyrase, the IC50 is more than 66.3 µM. For the same compound, the results for the MIC (in the test with S. aureus ATCC13709; in test [1]; in the test on S. pneumoniae ATCC49619) were 0.25 µg/mL (≈ 0.518 µM), 32 µg/mL (≈ 66.3 µM) and 1 µg/mL (≈ 2.07 µM), respectively.

Regarding `COc1ccc2nccc(-n3cc4c(n3)CCC(NCCCc3ccc(C)cc3)C4)c2n1` (stereo not drawn) [Example 49, [2-(6-Methoxy-[1,5]naphthyridin-4-yl)-4,5,6,7-tetrahydro-2H-indazol-5-yl]-(3-p-tolyl-propyl)-amine], the IC50 at E. coli DNA gyrase was 7.02 µM. Besides, the minimal inhibitory concentration (MIC) with S. aureus ATCC13709 was less than 0.125 µg/mL; in test [1], 128 µg/mL (≈ 299 µM); with S. pneumoniae ATCC49619, 0.5 µg/mL (≈ 1.17 µM).

For `COc1ccc2nccc(-n3cc4c(n3)CCC(NC/C=C/c3ccc(F)cc3)C4)c2c1` (stereo not drawn) [Example 57, [3-(4-Fluoro-phenyl)-allyl]-[2-(6-methoxy-quinolin-4-yl)-4,5,6,7-tetrahydro-2H-indazol-5-yl]-amine], at E. coli DNA gyrase, the IC50 was 4.67 µM. Further, the minimum inhibitory concentration (MIC) in the test with S. aureus ATCC13709 came out at 1 µg/mL (≈ 2.33 µM); in test [1], 64 µg/mL (≈ 149 µM); with S. pneumoniae ATCC49619, 2 µg/mL (≈ 4.67 µM).
